Data set [1] relates to MOLM-13. The data set is described as follows: Induction of apoptosis in human MOLM-13 cells assessed as increase in caspase-3 level at 0.15 to 0.6 uM incubated for 24 hrs by Western blot analysis. The format is functional, cell-based. The conditions noted are these: dose 0.15-0.6 µM. (A western blot detects proteins with antibodies after separation by electrophoresis.)
Data set [2] deals with MOLM-13. The data set is described as follows: Induction of apoptosis in human MOLM-13 cells assessed as viable cells at 0.9 uM incubated for 24 hrs by Annexin V-FITC/PI staining based flow cytometry (reference value: 95.1 %). The format is functional. The conditions noted are these: read-out: Activity. Background: In flow cytometry, cells or beads pass a laser one at a time.

In data set [3] the target is Cellular tumor antigen p53 (Homo sapiens) (UniProt P04637). The experiment in a line: Activation of p53 pathway in human HCT-116 cells assessed as increase in p21 level at 1 uM incubated for 24 hrs by Western blot analysis. The format is cell-based. As to conditions: filed as activator.
The nature of data set [4]: Antiproliferative activity against HEK293 cells incubated for 4 days by CCK8 assay. As to conditions: human. The format is toxicity, cell-based. Background: Formazan colour is commonly taken as a measure of viable cells.
The target in data set [5] is Cellular tumor antigen p53 (Homo sapiens) (UniProt P04637). The data set is described as follows: Activation of p53 pathway in human MOLM-13 cells assessed as increase in PUMA mRNA level incubated for 24 hrs by qPCR analysis. The format is cell-based. As to conditions: filed as activator, dose 0.038-0.6 µM.
The nature of data set [6]: Selectivity index, ratio of IC50 for HEK293 cells to IC50 for human A549 cells. The format is toxicity. As to conditions: HEK293 cells versus A549 cells, read-out: Ratio IC50.
In data set [7] the target is Cellular tumor antigen p53 (Homo sapiens) (UniProt P04637). The experiment in a line: Activation of p53 pathway in human MOLM-13 cells assessed as increase in p53 level incubated for 24 hrs by Western blot analysis. The format is cell-based. The conditions noted are these: filed as activator, dose 0.038-0.6 µM.
The test system of data set [8] is MOLM-13. The experiment in a line: Induction of apoptosis in human MOLM-13 cells assessed as necrotic cells at 0.3 uM incubated for 24 hrs by Annexin V-FITC/PI staining based flow cytometry (reference value: 0.020 %). The format is functional.
Data set [9] has as its system MOLM-13. The experiment in a line: Induction of apoptosis in human MOLM-13 cells assessed as late apoptotic cells at 0.1 uM incubated for 24 hrs by Annexin V-FITC/PI staining based flow cytometry (reference value: 0.457 %). The format is functional.
The test system of data set [10] is MOLM-13. The experiment in a line: Induction of apoptosis in human MOLM-13 cells assessed as viable cells at 2.7 uM incubated for 24 hrs by Annexin V-FITC/PI staining based flow cytometry (reference value: 95.1 %). The format is functional. The conditions noted are these: read-out: Activity.
Data set [11] relates to MOLM-13. The data set is described as follows: Induction of apoptosis in human MOLM-13 cells assessed as viable cells at 24.3 uM incubated for 24 hrs by Annexin V-FITC/PI staining based flow cytometry (reference value: 95.1 %). The format is functional. The conditions noted are these: read-out: Activity.
The target in data set [12] is Cellular tumor antigen p53 (Homo sapiens) (UniProt P04637). The data set is described as follows: Activation of p53 pathway in human MOLM-13 cells assessed as increase in p21 level incubated for 24 hrs by Western blot analysis. As to conditions: filed as activator, dose 0.038-0.6 µM. The format is cell-based.
Data set [13] has the same target. The data set is described as follows: Activation of p53 pathway in human MOLM-13 cells assessed as increase in MDM2 level incubated for 24 hrs by Western blot analysis. The conditions noted are these: filed as activator, dose 0.038-0.6 µM. The format is cell-based.
The test system of data set [14] is MOLM-13. The experiment in a line: Induction of apoptosis in human MOLM-13 cells assessed as necrotic cells at 8.1 uM incubated for 24 hrs by Annexin V-FITC/PI staining based flow cytometry (reference value: 0.020 %). The format is functional.
Data set [15] has as its target Cellular tumor antigen p53 (Homo sapiens) (UniProt P04637). The data set is described as follows: Activation of p53 pathway in human HeLa cells assessed as increase in p53 level at 1 uM incubated for 24 hrs by Western blot analysis. The format is cell-based.
The next data set relates to SW480. The experiment in a line: cells. The conditions noted are these: Homo sapiens, SW480, 96 h.
The subject of another data set is HeLa. The data set is described as follows: cells. As to conditions: Homo sapiens, 96 h.
In data set [16] the target is Cellular tumor antigen p53 (Homo sapiens) (UniProt P04637). The data set is described as follows: Activation of p53 pathway in human MOLM-13 cells assessed as increase in MDM2 mRNA level incubated for 24 hrs by qPCR analysis. The format is cell-based. As to conditions: filed as activator, dose 0.038-0.6 µM.

Consider one compound from ChEMBL document CHEMBL5512651, “Synthesis and biological evaluation of 4-imidazolidinone-containing compounds as potent inhibitors of the MDM2/p53 interaction” (Eur J Med Chem, 2024).

Calls of active or inactive are those of the source. No cut-off for these calls is given here.

Sequence of Cellular tumor antigen p53 (Homo sapiens) (P04637 whole entry, looked up): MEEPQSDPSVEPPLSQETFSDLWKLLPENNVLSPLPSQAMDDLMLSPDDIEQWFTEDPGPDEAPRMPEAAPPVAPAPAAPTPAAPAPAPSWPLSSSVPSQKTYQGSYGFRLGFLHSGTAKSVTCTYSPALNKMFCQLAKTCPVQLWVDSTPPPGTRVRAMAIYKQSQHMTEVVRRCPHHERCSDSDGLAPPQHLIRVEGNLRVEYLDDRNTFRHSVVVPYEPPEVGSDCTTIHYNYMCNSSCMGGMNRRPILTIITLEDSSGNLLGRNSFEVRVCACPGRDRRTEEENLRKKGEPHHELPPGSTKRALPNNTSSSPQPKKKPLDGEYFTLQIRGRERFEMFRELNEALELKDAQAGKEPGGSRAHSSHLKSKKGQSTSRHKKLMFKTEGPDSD

The IC50 is the concentration that gives 50% inhibition. Higher therefore signals weaker potency. For `COc1cc(C(=O)O)ccc1N1CN2[C@@H](CC(C)(C)C)[C@@]3(CNc4cc(Cl)ccc43)[C@@H](c3cccc(Cl)c3)[C@@H]2C1=O`, the outcome (with MOLM-13 [1]; in data set [3]) was Active. Also, the viability at 0.9 µM with MOLM-13 [2] amounted to 50%. The compound further yielded an IC50 at 4 days in data set [4] of 9.65 µM. Besides, the Activity result in data set [5] was “Dose-Dependent Effect”; in [7], “Dose-Dependent Effect”; in the data set with MOLM-13 [8], 0.179%; in the data set on MOLM-13 [9] it was 0.797%; in [12] it was “Dose-Dependent Effect”; in [13] it was “Dose-Dependent Effect”. Moreover, the values for the Activity (with MOLM-13 [14]; in data set [16]) were 0.176% and “Dose-Dependent Effect”, respectively. Further, the selectivity ratio in data set [6] came to 52. Besides, the viability at 2.7 µM in the data set on MOLM-13 [10] amounted to 30.1%. Also, in the data set on MOLM-13 [11], the viability at 24.3 µM turned out to be 8.63%. Further, the outcome in data set [15] was inactive. The concentration for half-maximal inhibition (IC50) stood at 5.94 µM with SW480 and 12.3 µM with HeLa.
